These results are taken from patent US20090069547A1, “STABILIZATION OF MAMMALIAN MEMBRANE PROTEINS BY SHORT SURFACTANT PEPTIDES” (Massachusetts Institute of Technology, priority 2007, published 2009).

Where two headings read alike, the source gives them in different places.

For data set [1] the following is noted: non-peptide surfactant, medium not stated; cited from earlier work.
Data set [2] concerns photosystem I (PSI) protein complex. Conditions: cited from earlier work; for Stabilization of the PSI complex (≈735-nm fluorescence maximum, words): surfactant added before drying the sample, emission at 77 K.
Data set [3] has as its target T1, GPCR bovine rhodopsin (Bos taurus, UniProt P02699).
T1 construct: Bovine retinae rod outer segment membranes were prepared (40, 41) and urea-stripped (42); tissue J. A. Lawson (Lincoln, Nebr.); host or cells: bovine retinae, rod outer segments
The experiment in a line: Thermal stability of rhodopsin in peptide solution in the presence of surfactant (decay of A500). The format is biochemical. The method, then:
Solubilization of Rhodopsin in Different Surfactants. Bovine retinae rod outer segment membranes were prepared (40, 41) and urea-stripped (42). Samples of the membranes containing 1.4 nmol of rhodopsin were solubilized in 0.5 ml of PBS containing 0.5 mM phenylmethylsulfonyl fluoride with 1% DM or 2% (/vol) OG. The suspensions were centrifuged (100,000×g for 15 min), and the supernatants were kept in the dark at 4° C.
Thermal Stability Study of Rhodopsin in Peptide Solution in the Presence of the Surfactant. Rhodopsin solubilized (32-34) in PBS containing 2% (vol/vol) OG was added to the same volume of PBS containing 0, […], 5.0, or 7.5 mM A6D, 1.8% PEG, or 5.4 mM RAD8. In another experiment, rhodopsin solubilized in PBS containing 1% (19.8 mM) DM was added to the same volume of PBS containing 5.0 mM A6D or 0, 5.0, or 19.8 mM DM. A decrease in A500 was recorded every 5 min up to 110 min at 40° C. for the samples containing OG and at 40-55° C. for those containing DM (FIGS. 2 and 3). UV-visible absorption spectroscopy was performed with a Lambda 6 spectrophotometer (Perkin-Elmer, Wellesley, Mass.) equipped with a temperature regulated cuvette holder with a slit width of 2 nm, 480 nm/min scan speed, and a response time of 1 second. The A500 remaining at different time points was expressed as the percentage of absorbance present at the start of the experiment. The half-life of rhodopsin in each solution was calculated by using a single exponential curve fit. The plot obtained from the percentage of absorbance at different time points was fitted to a single exponential curve with two parameters (Eq. 1).
The plot obtained from the A500 values at different time points was directly fitted to a single exponential curve with three parameters (Eq. 2) when the plot from the percentage of absorbance could not be fitted to Eq. 1.
The half-life (t1/2) was calculated using Eq. 3.

In another data set the test system is phycobilisomes. Nature of the data set: Stabilization of phycobilisomes, room temperature fluorescent spectroscopy (666 nm). The data set is classed as biochemical, Porphridium Cruentum. Conditions: phycobilisomes after buffer change to 0.4M PBS, excitation 540 nm, room temperature. The method, then:
Methods: Native phycobilisomes were isolated from Porphridium Cruentum, purified by Martek Biosciences and received in stabilizing buffer (0.75 M PBS, pH ˜7). Peptergents (ac-A6D and ac-A6K—NH2) were used as supplied (CPC Scientific) without further purification. Briefly, phycobilisomes (1 ng/mL) were mixed with peptergent-0.75M PBS solutions (0, 1, 2, 4 and 8 critical aggregation concentrations (CAC)). Phycobilisome-peptide solutions were dialyzed (3400 MWCO) against PBS solutions of various molarity (0.6-0.01M) for 18 h, in the dark. Room temperature fluorescent spectroscopy of these solutions was conducted using an excitation wavelength of 540 nm and emitted fluorescence (550-700 nm) were collected. UV-Vis spectra were obtained to confirm solution concentrations for all acquired fluorescent data.

A short description of data set [4]: Critical aggregation concentration (CAC) of surfactants, dynamic light scattering. The data set is classed as physicochemical. The method, then: In a further embodiment, the surfactant peptide is added to the mammalian membrane protein at a concentration that is based on the CAC of the surfactant peptide. The CAC of surfactants can be determined experimentally using known dynamic light scattering methods. A minimal amount of sample can be used in this method. Each CAC determination takes a few hours, therefore it is possible to determine the CAC for a large number of peptide detergents in a few weeks. It is known that the lower the CAC, the more hydrophobic the detergents and the stronger the aggregation in water. The CAC for several peptide surfactants in water is shown below in Table 1.
Similar to common surfactants, these peptide surfactants have defined critical aggregation concentrations (CACs) in the sub-millimolar to millimolar range, depending on the hydrophobicity of the tails and the ionic concentration. For example, in water, A6D has a CAC of ≈1.6 mM, and A6K has a CAC of 1.5 mM; however, in phosphate-based saline (PBS) (10 mM sodium phosphate/150 mM NaCl, pH 7.4), A6D has a CAC of 0.25 mM and A6K has a CAC of ≈0.23 mM. This difference is due the charge screening effect in accordance with the Derjaguin-Landau-Verwey-Overbeck (DVLO) theory, which postulates that a critical coagulation concentration of counterions is required to allow assembly and that this concentration will be inversely proportional to the valence of the counterion raised to the sixth power (28). The peptide surfactant supramolecular structure is similar to that of phospholipids; namely, the formation of a polar interface sequesters the hydrophobic tails from water.

Data set [5] has as its target T2, glycerol 3-phosphate dehydrogenase (Escherichia coli, UniProt P13035).
T2 sequence (P13035 1-501): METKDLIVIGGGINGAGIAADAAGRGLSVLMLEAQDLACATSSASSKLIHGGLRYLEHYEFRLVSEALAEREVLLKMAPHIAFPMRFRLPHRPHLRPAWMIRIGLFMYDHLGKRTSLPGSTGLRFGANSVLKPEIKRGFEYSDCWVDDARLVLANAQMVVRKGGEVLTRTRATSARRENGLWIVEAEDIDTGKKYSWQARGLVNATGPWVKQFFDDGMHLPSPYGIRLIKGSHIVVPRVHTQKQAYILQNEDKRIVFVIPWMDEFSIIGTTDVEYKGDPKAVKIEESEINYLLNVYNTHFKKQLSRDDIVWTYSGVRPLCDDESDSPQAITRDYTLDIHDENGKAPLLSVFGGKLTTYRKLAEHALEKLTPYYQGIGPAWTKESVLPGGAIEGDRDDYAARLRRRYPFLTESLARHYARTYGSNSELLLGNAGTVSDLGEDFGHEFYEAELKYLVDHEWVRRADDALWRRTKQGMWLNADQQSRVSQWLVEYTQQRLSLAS
Conditions: in solution, assayed through protein gel electrophoresis; cited from earlier work.

Data set [6] addresses T1, GPCR bovine rhodopsin. Nature of the data set: Thermal stability of rhodopsin in peptide solution in the absence of OG (decay of A500). The format is biochemical. Conditions: control samples containing only OG, without A6D. The method, then: Thermal Stability of Rhodopsin in Peptide Solution in the Absence of OG. Rhodopsin solubilized in PBS containing 2% (vol/vol) OG was added to the same volume of PBS containing 2.5 mM A6D. […] Then, 0.5 ml of the mixture was poured into the tube. The tube was covered with 10 kDa of cutoff membrane and dialyzed against 4.5 ml of PBS containing 1.25 mM A6D for 40 h in the dark at 4° C. A resultant sample decrease in A500 was recorded every 5 min for 120 min at 40° C. A decrease in A500 of the predialysis mixture containing 1% OG and 1.25 mM A6D was also monitored as a control (FIG. 4A).

Data set [7] concerns the target T3, delipidated bovine rhodopsin (Bos taurus, UniProt P02699).
T3 construct: Bovine retinae rod outer segment membranes were prepared (40, 41) and urea-stripped (42); tissue J. A. Lawson (Lincoln, Nebr.); host or cells: bovine retinae, rod outer segments
Nature of the data set: Thermal stability of delipidated rhodopsin in the absence of phospholipids (decay of A500). The format is biochemical. The procedure:
Removal of Phospholipids from Rhodopsin. Samples of the membranes containing 4.7 nmol of rhodopsin were solubilized in 1,000 ul of PBS containing 2% (vol/vol) OG. The suspension was mixed with 250 ul (settled beads, concentration of 50%) of rhodopsin-1D4 Sepharose and rotated for 3 h. The 1D4 Sepharose beads were then packed into a minicolumn (7-mm inner diameter) and washed with PBS containing 1% OG by using 500 bed volumes (total of 62.5 ml). The rhodopsin was then eluted with 1.5 ml of PBS containing 1% OG and the C-terminal nanopeptide.
Thermal Stability Study of Rhodopsin in Peptide Solution in the Absence of Phospholipids. The delipidated rhodopsin solution was added to the same volume of 1% OG in PBS containing 0, 3.75, or 7.5 mM A6D, or 1.8% PEG (FIG. 4B). In another experiment, the delipidated rhodopsin solutions were poured into tubes. Each tube was covered with 10 kDa of cutoff membrane and dialyzed against 4.5 ml of PBS or PBS containing 1.25 mM A6D or 1% OG (FIG. 4C). For all samples, a decrease in A500 was recorded every 5 min, up to 120 min at 40° C.

T1 sequence (P02699 whole entry): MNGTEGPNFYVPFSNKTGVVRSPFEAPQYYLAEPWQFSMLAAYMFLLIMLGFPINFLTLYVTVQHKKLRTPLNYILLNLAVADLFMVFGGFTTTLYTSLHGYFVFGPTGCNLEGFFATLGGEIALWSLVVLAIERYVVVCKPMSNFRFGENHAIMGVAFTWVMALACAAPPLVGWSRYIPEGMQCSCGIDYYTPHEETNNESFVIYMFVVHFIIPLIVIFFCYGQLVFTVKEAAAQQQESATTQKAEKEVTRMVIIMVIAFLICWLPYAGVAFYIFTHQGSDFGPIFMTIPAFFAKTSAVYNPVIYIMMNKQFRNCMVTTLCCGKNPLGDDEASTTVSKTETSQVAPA
T3 sequence (P02699 whole entry): as above

Turning to `CCCCCCCCCCCCO[C@@H]1O[C@H](CO)[C@@H](O[C@H]2O[C@H](CO)[C@@H](O)[C@H](O)[C@H]2O)[C@H](O)[C@H]1O` [DM, n-dodecyl-B-D-maltoside], the CAC result in data set [1] is reported as “≈ 0.15 mM”. For the same compound, the “Stabilization of the PSI complex (≈735-nm fluorescence maximum, words)” value (“Stabilization of the PSI complex” for short) in data set [2] is reported as “did not stabilize”. The Half-life of rhodopsin is 96 min on GPCR bovine rhodopsin [3] (12.3 mM DM, 50° C.); “≈ 93 min” at GPCR bovine rhodopsin [3] (rhodopsin/phospholipid, 13.3 mM DM (89×CAC)); 102 min and ≈ 102 min at GPCR bovine rhodopsin [3] (rhodopsin/phospholipids, 9.8 mM DM, 50° C.); 96 min and ≈ 93 min on GPCR bovine rhodopsin [3] (rhodopsin/phospholipids, 19.6 mM DM, 50° C.).

For the compound AAAAAAK [A6K], in the data set with phycobilisomes, the “666 nm fluorescence intensity” value is reported as 0.7 ×10^5 cps. Besides, the CAC entry in data set [4] (in phosphate-based saline (PBS) (10 mM sodium phosphate/150 mM NaCl, pH 7.4)) was “≈ 0.23 mM”; in data set [4] (in water), ~1.5 mM. The “Time the PSI complex is stable in a dried form” value in data set [2] (room temperature, in the presence of the peptide surfactant) is listed as “at least 3 weeks”. In addition, in data set [2], the “Stabilization of the PSI complex” value is listed as “significantly stabilized the PSI complex”.

With VVVVVVD [V6D], the CAC in data set [4] (in water) was ~0.7 mM. The “Stabilization of the PSI complex” value in data set [2] was “also stabilized the complex, but to a lesser extent”. Besides, the “Solubilized membrane protein function” value in data set [5] is on record as “retaining its functional enzymatic activities”.

As for “Ac-n-RADARADA-c-NH2 (Ac-RADARADA-NH2) [RAD8, octapeptide similar in size to A6D without significant surfactant properties]”, in the data set with GPCR bovine rhodopsin [3] (rhodopsin/phospholipid, 2.8 mM RAD8/1% OG, 40° C.), the Half-life of rhodopsin is 99 min and ≈ 99 min.

For `CCCCCCCCO[C@@H]1O[C@H](CO)[C@@H](O)[C@H](O)[C@H]1O` [OG, octyl-D-glucoside], in data set [1], the CAC result is on record as “≈ 5 mM”. For the same compound, the Half-life of rhodopsin result on GPCR bovine rhodopsin [6] (40° C.) is “≈ 101 min”; on GPCR bovine rhodopsin [6] (50° C.), “≈ 5 min”; at GPCR bovine rhodopsin [3] (rhodopsin/phospholipids in 1% OG (PBS), 40° C.), 71 min and ≈ 71 min; in data set [7] (delipidated rhodopsin dialyzed against 1% OG (control), 40° C.) it was 27 min; in data set [7] (delipidated rhodopsin, 1% OG, 40° C. (A6D concentration series)), 23 min. Moreover, the “Stabilization of the PSI complex” value in data set [2] is “did not stabilize”. Also, in data set [7] (OG added to delipidated rhodopsin, 40° C.), the “Stabilization effect on delipidated rhodopsin” value is reported as “did not have a significant stabilization effect”.

For VVVVVVDD [V6D2], the CAC in data set [4] (in water) is 1.1 mM.
